Earlier results on two compounds are cited in patent US20140248345A1 (Merck Sharp & Dohme Corp., priority 2011, published 2014).

SMILES strings stand for the structures.

The data set concerns human Type 2 diabetics. The following applies: oral administration.

For `N#C[C@@H]1CCCN1C(=O)CNC12CC3CC(CC(O)(C3)C1)C2` [vildagliptin, (S)-1-[(3-hydroxy-1-adamantyl)amino]acetyl-2-cyano-pyrrolidine], the HbA1c levels result was “significantly reduced”; the “fasting glucose and postprandial glucose excursion” value is “reduce fasting glucose and postprandial glucose excursion”.
With `N[C@@H](CC(=O)N1CCn2c(nnc2C(F)(F)F)C1)Cc1cc(F)c(F)cc1F` [sitagliptin, (2R)-4-oxo-4-[3-(trifluoromethyl)-5,6-dihydro[1,2,4]triazolo[4,3-a]pyrazin-7(8H)-yl]-1-(2,4,5-trifluorophenyl)butan-2-amine], the HbA1c levels result is “significantly reduced”; the “fasting glucose and postprandial glucose excursion” value was “reduce fasting glucose and postprandial glucose excursion”.
